Measured values published in US11959929B2, “Method of quantifying lysergic acid diethylamide (LSD) and 2,3-dihydro-3-hydroxy-2-oxo lysergide (O-H-LSD) in human plasma” (Universitatsspital Basel, priority 2020, dated 2024).
Values joined by “and” are separate entries in the source; they are usually repeats but may differ in a detail not shown here. Equal values may be shown once.

Experiments:
[1] = Clinical application: plasma concentration-time profile of LSD and O-H-LSD after a single oral 5 μg LSD dose in healthy volunteers; type: in vivo, human; conditions: three healthy volunteers
Procedure: To examine the application of the developed method, LSD and O-H-LSD concentrations were quantified in plasma samples of three healthy volunteers receiving a single oral dose of 5 μg. This corresponds to a very low LSD dose, used in LSD microdosing clinical trials (Holze et al., 2021a). The study was conducted in accordance with the Declaration of Helsinki and approved by the Medical Ethics Committee of the Academic Hospital of Maastricht and Maastricht University. The use of LSD in humans was authorized by the Dutch Drug Enforcement Administration. All volunteers provided written informed consent prior to study participation. To establish concentration time profiles, blood samples were collected in lithium heparin coated tubes at the following time points: 0, 0.5, 1, 1.5, 2, 3, 4, 6 after treatment. Blood samples were centrifuged, and plasma was frozen at −20° C. until analysis.
The application of the method was assessed by analyzing the PK of LSD and O-H-LSD in three healthy volunteers treated with an oral dose of 5 μg LSD base (FIG. 5). An oral dose of 5 μg LSD base in ethanol (Holze et al., 2021) was administered to three healthy volunteers. Plasma concentrations of LSD and O-H-LSD were quantified before and up to six hours post-treatment. […] Mean values and the standard deviations are illustrated.
The maximal plasma level of LSD and O-H-LSD was on average 178 pg/ml (SD: 30.6 pg/ml) and 10.4 pg/ml (SD: 2.59 pg/ml), respectively. LSD reached Tmax approximately after 1 hour post-treatment, whereas O-H-LSD peaked after 3 hours. The LSD concentrations measured after a dose of only 5 μg were approximately 7 to 18 times higher than the methods limit of quantification. Thus, the PK of LSD could straightforwardly be established also for very low so-called microdoses (Kuypers et al., 2019). In the case of O-H-LSD, a larger amount of plasma sample was required to determine the plasma concentration time profile after a dose of 5 μg. Three times more plasma was utilized (150 instead of 50 μl), which was extracted as outlined above using however three-fold more acetonitrile for the extraction. Sensitivity was increased by evaporating the extract and reconstituting the residue in a mixture of 150 μl of mobile phase A and mobile phase B (9/1 v/v). […] In future, it will also be considered to inject a larger amount of extract, which is in a first step retained and concentrated on a trapping column. In a second step, the direction of the flow is inverted and so that the sample can be loaded and eluted on the analytical column. This column switching procedure, will increase the sensitivity in the event that the sample can be retained on the trap column. Importantly, the time-consuming solvent evaporation step can thereby be avoided.

[2] = Bench-top (short-term) stability test in human plasma, 8 hours at ambient temperature; type: physicochemical; conditions: for Change in concentration [%]: 8 h at RT vs Baseline; for Accuracy: single QC replicate
Excerpt: (§1) Each analyte had to be stable in human plasma for at least three freeze-thaw cycles (for repeated sample preparations) and at ambient temperature for at least eight hours (maximal duration of sample preparation). Measured samples should be stable for a second injection when the first analytical run was not valid. The analytes had to be stable in the matrix at the intended storage temperatures and study duration.
(§2) An analyte was considered stable at one of the above tests when no increase or decrease of the analyte concentration of more than 15% for the mean of at least three analyzed QC samples at low, medium and at high concentration was observed.
Seven of each LLOQ, QCLOW, QCMID, QCHIGH, and ULOQ samples in human plasma were thawed at ambient temperature and kept at this temperature for 8 hours. Afterwards, the samples were worked up and analyzed. The values of the concentrations in the “short-term” samples were compared with freshly processed QC samples. Concentrations were calculated based on two freshly prepared CAL sets measured at the beginning and the end of the validation run.

[3] = Reinjection reproducibility of worked-up plasma samples (overnight at 10° C. in autosampler; 1 week at −20° C.); type: physicochemical, human; conditions: for Change in concentration: 1 night at 10° C. in the autosampler vs Baseline; for Change in concentration [%]: 8 days at −20° C. vs Baseline; for Accuracy: single QC replicate
Excerpt: as §1, §2
Worked-up and measured Cal and QC samples (prepared in human plasma) of a valid run were repeatedly analyzed. Reinjection was performed after overnight storage at 10° C. (autosampler) and after 1-week storage at −20° C. The run was checked according to the acceptance criteria for validation runs. The calculated mean values for QC samples were compared between the original and reinjected run.

[4] = LLOQ: 10 pg/ml, reinjection after 8 days at −20° C.
[5] = QCHIGH: 1000 pg/ml, reinjection after 8 days at −20° C.
[6] = QCLOW: 25 pg/ml, reinjection after 8 days at −20° C.
[7] = QCMID: 100 pg/ml, reinjection after 8 days at −20° C.
[8] = ULOQ: 10000 pg/ml, reinjection after 8 days at −20° C.

Compound: CCN(CC)C(=O)C1C=C2c3cccc4c3C(O)(C[C@H]2N(C)C1)C(=O)N4 (some centres unmarked) [O-H-LSD, 2,3-dihydro-3-hydroxy-2-oxo lysergide]
- Tmax (time of peak plasma level post-treatment) ([1]; single oral dose of 5 μg LSD base): 3 h
- maximal plasma level (average) ([1]; single oral dose of 5 μg LSD base in ethanol, LC-MS/MS, O-H-LSD measured as metabolite using 150 μl plasma): 10.4 pg/mL
- Accuracy, Intra-assay Mean ([2]; LLOQ: 10 pg/ml, 8 h at RT): 91.2%
- Found at, Intra-assay Mean ([2]; LLOQ: 10 pg/ml, 8 h at RT): 9.13 pg/mL
- Change in concentration [%] ([2]; LLOQ: 10 pg/ml): 0.176%
- Accuracy ([2]; LLOQ: 10 pg/ml, 8 h at RT): 90.4% and 94.3% and 63.8* % and 77.5* % and 83.1% and 101% and 87.9%
- Accuracy, Intra-assay Mean ([2]; LLOQ: 10 pg/ml, Baseline): 91.1%
- Found at, Intra-assay Mean ([2]; LLOQ: 10 pg/ml, Baseline): 9.11 pg/mL
- Accuracy ([2]; LLOQ: 10 pg/ml, Baseline): 95% and 88.9% and 89.4%
- Accuracy, Intra-assay Mean ([2]; QCHIGH: 1000 pg/ml, 8 h at RT): 95.1%
- Found at, Intra-assay Mean ([2]; QCHIGH: 1000 pg/ml, 8 h at RT): 951 pg/mL
- Change in concentration [%] ([2]; QCHIGH: 1000 pg/ml): −1.51%
- Accuracy ([2]; QCHIGH: 1000 pg/ml, 8 h at RT): 96% and 100% and 91.8% and 94.6% and 93.6% and 95.8% and 93.9%
- Accuracy, Intra-assay Mean ([2]; QCHIGH: 1000 pg/ml, Baseline): 96.6%
- Found at, Intra-assay Mean ([2]; QCHIGH: 1000 pg/ml, Baseline): 966 pg/mL
- Accuracy ([2]; QCHIGH: 1000 pg/ml, Baseline): 97.7% and 96.2% and 95.9%
- Accuracy, Intra-assay Mean ([2]; QCLOW: 25 pg/ml, 8 h at RT): 96.4%
- Found at, Intra-assay Mean ([2]; QCLOW: 25 pg/ml, 8 h at RT): 24.1 pg/mL
- Change in concentration [%] ([2]; QCLOW: 25 pg/ml): 1.1%
- Accuracy ([2]; QCLOW: 25 pg/ml, 8 h at RT): 89.2% and 93.3% and 97.6% and 102% and 103% and 97.1% and 91.9%
- Accuracy, Intra-assay Mean ([2]; QCLOW: 25 pg/ml, Baseline): 95.3%
- Found at, Intra-assay Mean ([2]; QCLOW: 25 pg/ml, Baseline): 23.8 pg/mL
- Accuracy ([2]; QCLOW: 25 pg/ml, Baseline): 94.7% and 91.5% and 99.8%
- Accuracy, Intra-assay Mean ([2]; QCMID: 100 pg/ml, 8 h at RT): 95.8%
- Found at, Intra-assay Mean ([2]; QCMID: 100 pg/ml, 8 h at RT): 95.8 pg/mL
- Change in concentration [%] ([2]; QCMID: 100 pg/ml): 0.652%
- Accuracy ([2]; QCMID: 100 pg/ml, 8 h at RT): 97.1% and 91.5% and 95.2% and 98.3% and 94.6% and 99.6% and 94.5%
- Accuracy, Intra-assay Mean ([2]; QCMID: 100 pg/ml, Baseline): 95.2%
- Found at, Intra-assay Mean ([2]; QCMID: 100 pg/ml, Baseline): 95.2 pg/mL
- Accuracy ([2]; QCMID: 100 pg/ml, Baseline): 95.7% and 98.6% and 91.4%
- Accuracy, Intra-assay Mean ([2]; ULOQ: 10000 pg/ml, 8 h at RT): 91.1%
- Found at, Intra-assay Mean ([2]; ULOQ: 10000 pg/ml, 8 h at RT): 9110 pg/mL
- Change in concentration [%] ([2]; ULOQ: 10000 pg/ml): −4.52%
- Accuracy ([2]; ULOQ: 10000 pg/ml, 8 h at RT): 90.2% and 93% and 90.7% and 88.2% and 93.2% and 91.5% and 91.1%
- Accuracy, Intra-assay Mean ([2]; ULOQ: 10000 pg/ml, Baseline): 95.4%
- Found at, Intra-assay Mean ([2]; ULOQ: 10000 pg/ml, Baseline): 9540 pg/mL
- Accuracy ([2]; ULOQ: 10000 pg/ml, Baseline): 94.2% and 92.3% and 99.7%
- Change in plasma concentration after 8 hours storage at room temperature ([2]; human plasma QC samples, 8 hours at room temperature, vs freshly processed QC): ≤ 4.52%
- Change in concentration ([3]; LLOQ: 10 pg/ml): 1.86%
- Change in concentration ([3]; QCHIGH: 1000 pg/ml): 2.08%
- Change in concentration ([3]; QCLOW: 25 pg/ml): −0.149%
- Change in concentration ([3]; QCMID: 100 pg/ml): −1.59%
- Change in concentration ([3]; ULOQ: 10000 pg/ml): 0.101%
- Change in concentration [%] ([3]; LLOQ: 10 pg/ml): −2.09%
- Accuracy, Intra-assay Mean ([3]; LLOQ: 10 pg/ml, Baseline): 107%
- Found at, Intra-assay Mean ([3]; LLOQ: 10 pg/ml, Baseline): 10.7 pg/mL
- Accuracy ([3]; LLOQ: 10 pg/ml, Baseline): 108% and 113% and 102% and 88.5% and 120% and 97.8% and 116%
- Accuracy, Intra-assay Mean [3, 4]: 104%
- Found at, Intra-assay Mean [3, 4]: 10.4 pg/mL
- Accuracy [3, 4]: 99.5% and 106% and 116% and 107% and 94.2% and 93.9% and 113%
- Change in concentration [%] ([3]; QCHIGH: 1000 pg/ml): −1.05%
- Accuracy, Intra-assay Mean ([3]; QCHIGH: 1000 pg/ml, Baseline): 103%
- Found at, Intra-assay Mean ([3]; QCHIGH: 1000 pg/ml, Baseline): 1030 pg/mL
- Accuracy ([3]; QCHIGH: 1000 pg/ml, Baseline): 103% (2×) and 105% (2×) and 99.6% and 99% and 106%
- Accuracy, Intra-assay Mean [3, 5]: 102%
- Found at, Intra-assay Mean [3, 5]: 1020 pg/mL
- Accuracy [3, 5]: 101% (2×) and 105% and 99.3% and 100% and 102% and 104%
- Change in concentration [%] ([3]; QCLOW: 25 pg/ml): −0.294%
- Accuracy, Intra-assay Mean ([3]; QCLOW: 25 pg/ml, Baseline): 105%
- Found at, Intra-assay Mean ([3]; QCLOW: 25 pg/ml, Baseline): 26.2 pg/mL
- Accuracy ([3]; QCLOW: 25 pg/ml, Baseline): 103% and 116* % and 108% (2×) and 109% and 101% and 100%
- Accuracy, Intra-assay Mean [3, 6]: 105%
- Found at, Intra-assay Mean [3, 6]: 26.1 pg/mL
- Accuracy [3, 6]: 104% (2×) and 115% and 109% and 96.5% and 108% and 97.3%
- Change in concentration [%] ([3]; QCMID: 100 pg/ml): 1.9%
- Accuracy, Intra-assay Mean ([3]; QCMID: 100 pg/ml, Baseline): 103%
- Found at, Intra-assay Mean ([3]; QCMID: 100 pg/ml, Baseline): 103 pg/mL
- Accuracy ([3]; QCMID: 100 pg/ml, Baseline): 101% and 102% (2×) and 104% and 106% and 108% and 98.5%
- Accuracy, Intra-assay Mean [3, 7]: 105%
- Found at, Intra-assay Mean [3, 7]: 105 pg/mL
- Accuracy [3, 7]: 109% (2×) and 98% and 104% and 106% and 102% and 107%
- Change in concentration [%] ([3]; ULOQ: 10000 pg/ml): −1.27%
- Accuracy, Intra-assay Mean ([3]; ULOQ: 10000 pg/ml, Baseline): 100%
- Found at, Intra-assay Mean ([3]; ULOQ: 10000 pg/ml, Baseline): 10000 pg/mL
- Accuracy ([3]; ULOQ: 10000 pg/ml, Baseline): 101% (2×) and 98.5% and 98.4% and 97.7% and 102% (2×)
- Accuracy, Intra-assay Mean [3, 8]: 98.8%
- Found at, Intra-assay Mean [3, 8]: 9880 pg/mL
- Accuracy [3, 8]: 97.3% and 97.6% and 97.5% and 96.9% and 103% and 98.8% and 101%
- Deviations of the means of the QCs of the two runs (reinjection) after 8 days at −20° C. ([3]; worked-up human plasma samples, 8 days at −20° C.): −2.09% to +1.9
- Deviations of the means of the QCs of the two runs (reinjection) after overnight storage at 10° C. ([3]; worked-up human plasma samples, overnight at 10° C. in the autosampler): −1.59% to +2.08
